Patent publication US20050038058A1, “Novel compounds and methods for therapy” (Institute of Organic Chemistry and Biochemistry, priority 2001, published 2005)
In brackets after ≈: the same amount, converted by molar mass. Where two headings read alike, the source gives them in different places. Marks after values point to notes of the source that are not given here.

Tests used:
MSV [1] = assay: MSV-induced transformation of murine embryo fibroblast C3H/3T3 cell cultures; format: cell-based; details: MSV-induced C3H cell transformation; Table 2
Procedure: The inhibitory effect of the test compounds on MSV-induced transformation of murine embryo fibroblast C3H/3T3 cell cultures was examined microscopically at day 6 post infection. MSV was added at 75 focus-forming units to the cell cultures. The detailed procedures for the antiretroviral evaluations has been described in detail before (Balzarini et al., AIDS 5:21-28, 1991; Balzarini et al., Antimicrob. Agents Chemother. 37:332-338, 1993; De Clercq et al., Proc. Soc. Exp. Biol. Med. 137:590-594, 1971).

[2] = system: HIV-1(IIIB) strains containing L100I, K103N, Y181C and Y188H mutations in the RT; assay: HIV-1(IIIB) strains with NNRTI-specific RT mutations in CEM cell cultures; format: cell-based; details: data not shown
Procedure: (§1) In vitro antiviral assays. The activity against HIV-1- and HIV-2-induced cytopathicity was examined in MT-4 cell cultures at day 5 post infection and based on the determination of cell viability by trypan blue dye staining or in CEM cell cultures at day 4 to 5 post infection and based on the microscopical examination of virus-induced giant cell formation. HIV-1 and HIV-2 were added at 100 CCID50 to the cell cultures.

HIV-1(IIIB) [3] = assay: HIV-1(IIIB) p24 antigen production in PBL (PHA-stimulated PBMC); format: cell-based
Procedure: Peripheral blood mononuclear cells (PBMC) from healthy donors were isolated by density centrifugation (Lymphoprep; Nycomed Pharma, AS Diagnostics, Oslo, Norway) and stimulated with phytohemagglutin (PHA) (Sigma Chemical Co., Bornem, Belgium) for 3 days. The activated cells (PHA-stimulated blasts) were washed with PBS and viral infections were done as described by the AIDS clinical trial group protocols. Briefly, PBMCs (2×10^5/200 well) were plated in the presence of serial dilutions of the test compound and were infected with HIV stocks at 1000 CCID50 per mL. At day 4 post-infection, 125 μl of the supernatant of the infected cultures was removed and replaced with 150 μl of fresh medium containing the test compounds at the appropriate concentrations. At 7 days after plating the cells, p24 antigen was detected in the culture supernatant by an enzyme-linked immunosorbent assay (NEN, Paris, France).

HIV-2(ROD) = assay: HIV-2(ROD)-induced cytopathicity in CEM cell cultures; format: cell-based; details: giant cell formation; Table 2
Source text: (§2) Viruses. The origins of MSV, HIV type 1 (HIV-1) (strain IIIB and Ba-L), HIV-2 (strain ROD) and FIV (strain Petaluma) have been described previously (Balzarini et al., AIDS 5: 21-28, 1991; De Clercq et al., Proc. Soc. Exp. Biol. Med. 137:590-594, 1971; Egberink et al., Proc. Natl. Acad. Sci. 87:3087-3091, 1990; Hartmann et al., Antiviral Chem. Chemother. 5:13-19, 1994; Popovic et al., Science 224:497-500, 1984). HIV-1(IIIB) and HIV-2(ROD) stocks were obtained from supernatants of virus-infected MT-4 cell cultures. HIV-1BaL was expanded in human primary M/M, whose supernatants were collected, filtered and stored at −80° C. before use. Characteristics of viral stocks used for this study were 2.1×10^8 HIV-RNA genomes/ml (corresponding to 35 ng of p24 antigen) and 5,000 tissue culture infectious doses 50% per ml (TCID50/ml) as assessed by virus titration in other primary M/M cultures. The isolation and characterization of the clinical HIV-1 isolates L1S, L6S and L6S/PMEA has been reported (Thormar et al., Proc. Natl. Acad. Sci. USA 93:3283-3287, 1995; Van Laethem et al., AIDS 15:553-561, 2001). […] HIV-1/L6S/PMEA is the clinical isolate HIV-1/L6S that has been isolated after culturing the virus for 11 passages in the presence of increasing concentrations of PMEA (adefovir).
as §1

C3H cells = assay: Alteration of C3H cell morphology (minimal inhibitory concentration); format: cell-based, murine; details: for CC50 C3H (minimal inhibitory concentration): microscopically visible alteration of cell morphology, > means no visible toxicity at the indicated concentration
HIV-1(IIIB) [4] = assay: HIV-1(IIIB)-induced cytopathicity in CEM cell cultures; format: cell-based; details: for EC50 as such / EC50 upon addition of Ade (100 μM) / EC50 upon addition of Ado (400 μM) / EC50 upon addition of Guo (10 μM) / EC50 upon addition of dCyd (1 mM) / EC50 upon addition of dThd (10 μM): HIV-1 (IIIB) in CEM; for EC50 as such: no addition, Table 3; for EC50 HIV-1 (CEM): HIV-1(IIIB)-induced cytopathicity in CEM cell cultures, Table 1; for EC50 HIV-1 (IIIB) (CEM): giant cell formation, mean ±SD of 2 to 4 experiments, Table 2
Source text: as §2, §1

MSV [5] = format: in vivo; details: for Number of Mice not Developing a Tumor (percent): intraperitoneal, 5 daily doses, newborn NMRI mice
HIV-1/L1S = format: cell-based; details: measured against the laboratory HIV-1/IIIB strain in CEM cell cultures
Source text: as §2, §1

HIV-1/L6S = format: cell-based; details: measured against the laboratory HIV-1/IIIB strain in CEM cell cultures
Source text: as §2, §1

HIV-1/L6S/PMEA = format: cell-based; details: measured against the laboratory HIV-1/IIIB strain in CEM cell cultures
Source text: as §2, §1

HIV-1(IIIB) [6] = assay: HIV-1(IIIB)-induced cytopathicity in MT-4 cell cultures; format: cell-based; details: Table 2
Source text: as §2, §1

HIV = assay: Anti-HIV activity across HIV-1 and HIV-2 in CEM and MT-4 cell cultures; format: cell-based; details: HIV-1 and HIV-2 in CEM and MT-4 cells
Procedure: as §1

[7] = 20 mg/kg, premature death not taken into account

Compound | EC50 MSV (C3H) (MSV [1]) | EC50 HIV-1(IIIB) in PBL (HIV-1(IIIB) [3]) | EC50 HIV-2 (ROD) (CEM) (HIV-2(ROD)) | CC50 C3H (minimal inhibitory concentration) (C3H cells) | EC50 as such (HIV-1(IIIB) [4]) | EC50 upon addition of Ade (100 μM) (HIV-1(IIIB) [4]) | EC50 upon addition of Ado (400 μM) (HIV-1(IIIB) [4]) | EC50 upon addition of Guo (10 μM) (HIV-1(IIIB) [4]) | EC50 upon addition of dCyd (1 mM) (HIV-1(IIIB) [4]) | EC50 upon addition of dThd (10 μM) (HIV-1(IIIB) [4]) | EC50 HIV-1 (CEM) (HIV-1(IIIB) [4]) | EC50 HIV-1 (IIIB) (CEM) (HIV-1(IIIB) [4]) | Number of Long-Term Survivors (%) (>30 days) (MSV [5]; 2 mg/kg) | Number of Mice not Developing a Tumor (percent) (MSV [5]; 2 mg/kg) | Number of Long-Term Survivors (%) (>30 days) (MSV [5]; 8 mg/kg) | Number of Mice not Developing a Tumor (percent) (MSV [5]; 8 mg/kg) | Number of Mice not Developing a Tumor (percent) (MSV [5]; 20 mg/kg) | Number of Long-Term Survivors (%) (>30 days) (MSV [5]; [7]) | -Fold Resistance HIV-1/L1S (HIV-1/L1S) | -Fold Resistance HIV-1/L6S (HIV-1/L6S) | other results
C[C@H](COc1cc(N)nc(N)n1)OCP(=O)(O)O [Compound 11, 2,4-diamino-6-(R)-[2-(phosphonomethoxy)propoxy]pyrimidine] | 0.05 ± 0.01 µg/mL (≈ 0.18 µM) | 0.12 µg/mL (≈ 0.431 µM) | 1.3 ± 0.4 µg/mL (≈ 4.67 µM) | > 40 µg/mL | 1.2 ± 0.25 µg/mL (≈ 4.31 µM) | 0.35 ± 0.17 µg/mL | 1.5 ± 0.70 µg/mL | 0.77 ± 0.38 µg/mL | 1.1 ± 0.51 µg/mL | 0.83 ± 0.35 µg/mL | 1.8 µg/mL (≈ 6.47 µM) | 1.9 ± 0.5 µg/mL (≈ 6.83 µM) | 5% | 0% | 40% | 15% | 20% | 40^c % | 1.9 fold | 3.5 fold | Activity against NNRTI-specific mutant virus strains, in words [2]: retained full activity; Compound concentration at which morphological toxicity was observed, C3H (value between parentheses) (C3H cells; Table 2, footnote c): 200 μg/ml; Antiretroviral (anti-HIV-1) activity in CEM cell cultures, in words (HIV-1(IIIB) [4]): markedly more inhibitory; -Fold Resistance HIV-1/L6S/PMEA (HIV-1/L6S/PMEA): 30 fold; EC50 HIV-1 (IIIB) (MT-4) (HIV-1(IIIB) [6]): 3.0 ± 0.4 µg/mL (≈ 10.8 µM)
C[C@H](Cn1cnc2c(N)ncnc21)OCP(=O)(O)O [(R)-PMPA, (R)-9-[(2-phosphonomethoxy)-propyl]adenine, reference compound] | 1.4 ± 0.9 µg/mL (≈ 4.87 µM) | 0.33 µg/mL (≈ 1.15 µM) | 0.43 ± 0.41 µg/mL (≈ 1.5 µM) | >200 µg/mL | 0.57 ± 0.26 µg/mL (≈ 1.98 µM) | 1.6 ± 1.6 µg/mL | 0.46 ± 0.23 µg/mL | 0.43 ± 0.0 µg/mL | 0.53 ± 0.26 µg/mL | 0.43 ± 0.0 µg/mL | 0.36 µg/mL (≈ 1.25 µM) | 0.36 ± 0.24 µg/mL (≈ 1.25 µM) | 31% | 0% | 83% | 65% | 92% | 100% | 2.3 fold | 11 fold | EC50 HIV-1 (IIIB) (PBL) (HIV-1(IIIB) [3]; p24 antigen production, Table 2): 0.09 ± 0.03 µg/mL (≈ 0.313 µM); EC50 values for HIV (range over virus/cell systems) (HIV): 0.36 to 0.52 µg/mL; Number of Mice not Developing a Tumor (percent) (MSV [5]; 50 mg/kg): 100%; Number of Long-Term Survivors (%) (>30 days) (MSV [5]; 50 mg/kg, premature death not taken into account): 100%; -Fold Resistance HIV-1/L6S/PMEA (HIV-1/L6S/PMEA): 54 fold; EC50 HIV-1 (IIIB) (MT-4) (HIV-1(IIIB) [6]): 0.46 ± 0.006 µg/mL (≈ 1.6 µM)
